Results from patent US10538567B2, “Compounds as peptidic trigonal GLP1/glucagon/GIP receptor agonists” (priority 2016, dated 2020).
Numbered stars: 1 amine (or outer) side, 2 acyl side, 3 side chain; on linkers, the order of the positions; unused ones are H or OH. Square brackets hold non-standard residues; d marks the D form. Side chains are listed from the residue outwards. Peptide text beside a SMILES is read from it. * marks the point of attachment. γGlu = O=C(O)[C@H](CCC(=O)[*:2])N[*:1]; Stearoyl = CCCCCCCCCCCCCCCCCC(=O)*; Aib = CC(C)(N)C(=O)O

Experiments:
[1] = target: T1, human GIP receptor (Homo sapiens, UniProt P48546); experiment: cAMP response (HTRF) of HEK-293 cells stably expressing human GIP receptor; type: cell-based; settings: Table 8; read-out: EC50 hGIP R
T1 construct: expressed in transfected cells; host or cells: HEK-293
T1 sequence (P48546 22-466): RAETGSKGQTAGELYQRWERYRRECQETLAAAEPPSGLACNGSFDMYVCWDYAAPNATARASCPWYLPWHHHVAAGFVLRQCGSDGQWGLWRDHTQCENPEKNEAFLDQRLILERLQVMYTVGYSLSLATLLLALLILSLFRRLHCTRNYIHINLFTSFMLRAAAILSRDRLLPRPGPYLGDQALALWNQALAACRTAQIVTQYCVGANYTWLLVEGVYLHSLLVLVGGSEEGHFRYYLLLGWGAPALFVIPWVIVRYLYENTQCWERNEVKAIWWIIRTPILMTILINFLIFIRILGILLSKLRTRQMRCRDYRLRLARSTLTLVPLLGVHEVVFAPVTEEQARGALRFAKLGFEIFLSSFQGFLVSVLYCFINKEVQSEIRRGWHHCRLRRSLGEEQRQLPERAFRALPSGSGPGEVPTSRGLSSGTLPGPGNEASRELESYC
Protocol: Agonism of compounds for the receptors was determined by functional assays measuring cAMP response of HEK-293 cell lines stably expressing human GLP-1, GIP or glucagon receptor.
(§1) cAMP content of cells was determined using a kit from Cisbio Corp. (cat. no. 62AM4PEJ) based on HTRF (Homogenous Time Resolved Fluorescence). For preparation, cells were split into T175 culture flasks and grown overnight to near confluency in medium (DMEM/10% FBS). Medium was then removed and cells washed with PBS lacking calcium and magnesium, followed by proteinase treatment with accutase (Sigma-Aldrich cat. no. A6964). Detached cells were washed and resuspended in assay buffer (1×HBSS; 20 mM HEPES, 0.1% BSA, 2 mM IBMX) and cellular density determined. They were then diluted to 400000 cells/ml and 25 μl-aliquots dispensed into the wells of 96-well plates. For measurement, 25 μl of test compound in assay buffer was added to the wells, followed by incubation for 30 minutes at room temperature. After addition of HTRF reagents diluted in lysis buffer (kit components), the plates were incubated for 1 hr, followed by measurement of the fluorescence ratio at 665/616 nm. In vitro potency of agonists was quantified by determining the concentrations that caused 50% activation of maximal response (EC50).
(§2) Potencies of peptidic compounds at the GLP-1, glucagon and GIP receptors were determined by exposing cells expressing human glucagon receptor (hGlucagon R), human GIP receptor (hGIP-R) or human GLP-1 receptor (hGLP-1 R) to the listed compounds at increasing concentrations and measuring the formed cAMP as described in Methods.

[2] = Thioflavin T (ThT) assay for physical stability (fibrillation); type: physicochemical; settings: 3 mg/ml, 100 mM acetate pH 4.5 with m-cresol, 37° C. shaking
Outline: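 Peptides at 3 mg/ml final with 100 μM ThT final in 100 mM acetate pH 4.5 containing 2.7 mg/mL m-cresol, eight replicates. Stressed at 37° C by repeated cycles of 10 s shaking at 960 rpm and 50 s rest. Fluorescence read every 20 minutes; lag time in hours taken from the sigmoidal kinetic curve.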

[3] = target: T2, human GLP-1 receptor (Homo sapiens, UniProt P43220); experiment: cAMP response (HTRF) of HEK-293 cells stably expressing human GLP-1 receptor; type: cell-based; settings: Table 8; read-out: EC50 hGLP-1R
T2 construct: expressed in transfected cells; host or cells: HEK-293
T2 sequence (P43220 24-463): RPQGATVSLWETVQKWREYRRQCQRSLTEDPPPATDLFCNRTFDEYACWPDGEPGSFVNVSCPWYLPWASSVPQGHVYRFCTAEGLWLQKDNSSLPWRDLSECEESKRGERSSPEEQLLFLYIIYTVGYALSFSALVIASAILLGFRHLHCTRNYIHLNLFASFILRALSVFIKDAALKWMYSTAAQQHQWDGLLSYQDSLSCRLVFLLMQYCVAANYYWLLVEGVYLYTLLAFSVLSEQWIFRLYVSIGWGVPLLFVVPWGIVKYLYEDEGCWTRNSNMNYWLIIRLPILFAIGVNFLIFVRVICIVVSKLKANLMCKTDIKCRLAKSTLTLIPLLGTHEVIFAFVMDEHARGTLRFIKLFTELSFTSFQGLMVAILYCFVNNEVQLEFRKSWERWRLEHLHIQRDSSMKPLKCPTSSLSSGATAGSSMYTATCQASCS
Protocol: as §1, with “temperature.” for “temperature. After addition of HTRF reagents diluted in lysis buffer (kit components), the plates were incubated for 1 hr, followed by measurement of the fluorescence ratio at 665/616 nm. In vitro potency of agonists was quantified by determining the concentrations that caused 50% activation of maximal response (EC50).”
as §2

[4] = target: T3, human glucagon receptor (Homo sapiens, UniProt P47871); experiment: cAMP response (HTRF) of HEK-293 cells stably expressing human glucagon receptor; type: cell-based; settings: Table 8; read-out: EC50 hGlucagon R
T3 construct: expressed in transfected cells; host or cells: HEK-293
T3 sequence (P47871 26-477): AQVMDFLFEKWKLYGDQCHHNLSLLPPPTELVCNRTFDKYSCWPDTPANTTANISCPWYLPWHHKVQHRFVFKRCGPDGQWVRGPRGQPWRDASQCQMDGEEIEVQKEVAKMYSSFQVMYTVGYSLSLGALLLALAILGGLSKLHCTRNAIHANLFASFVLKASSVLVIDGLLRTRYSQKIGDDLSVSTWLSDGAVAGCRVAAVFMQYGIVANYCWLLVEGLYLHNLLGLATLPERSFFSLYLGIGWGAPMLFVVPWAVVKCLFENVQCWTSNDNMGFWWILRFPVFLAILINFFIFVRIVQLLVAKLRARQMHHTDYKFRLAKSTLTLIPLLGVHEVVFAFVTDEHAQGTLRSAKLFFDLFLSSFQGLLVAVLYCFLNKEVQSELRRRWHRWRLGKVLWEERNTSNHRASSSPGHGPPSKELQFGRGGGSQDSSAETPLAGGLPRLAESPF
Protocol: as §1, with “temperature.” for “temperature. After addition of HTRF reagents diluted in lysis buffer (kit components), the plates were incubated for 1 hr, followed by measurement of the fluorescence ratio at 665/616 nm. In vitro potency of agonists was quantified by determining the concentrations that caused 50% activation of maximal response (EC50).”
as §2

EC50 [1]: 2.6 pM | Lag time before increase [2]: >45 h | EC50 [3]: 3.4 pM | EC50 [4]: 1.9 pM
SMILES: CCCCCCCCCCCCCCCCCC(=O)N[C@@H](CCC(=O)NCCCC[C@H](NC(=O)[C@H](CC(C)C)NC(=O)[C@H](CCCCN)NC(=O)[C@H](CO)NC(=O)[C@H](CC(C)C)NC(=O)[C@H](CC(=O)O)NC(=O)[C@H](CO)NC(=O)[C@@H](NC(=O)[C@H](Cc1ccccc1)NC(=O)[C@@H](NC(=O)CNC(=O)[C@H](Cc1c[nH]cn1)NC(=O)C(C)(C)NC(=O)[C@@H](N)Cc1c[nH]cn1)[C@@H](C)O)[C@@H](C)O)C(=O)N[C@@H](CCC(=O)O)C(=O)N[C@@H](CCC(=O)O)C(=O)N[C@@H](CCC(N)=O)C(=O)N[C@@H](CCCNC(=N)N)C(=O)N[C@@H](CCC(N)=O)C(=O)N[C@@H](CCCCN)C(=O)N[C@@H](CCC(=O)O)C(=O)N[C@@H](Cc1ccccc1)C(=O)N[C@H](C(=O)N[C@@H](CCC(=O)O)C(=O)N[C@@H](Cc1c[nH]c2ccccc12)C(=O)N[C@@H](CC(C)C)C(=O)N[C@@H](CCCCN)C(=O)N[C@@H](C)C(=O)NCC(=O)NCC(=O)N1CCC[C@H]1C(=O)N1CCC[C@H]1C(=O)N[C@@H](CO)C(=O)NC(C)(C)C(=O)N[C@@H](CCCCN)C(=O)N1CCC[C@H]1C(=O)N1CCC[C@H]1C(=O)N1CCC[C@H]1C(=O)N[C@@H](CCCCN)C(N)=O)[C@@H](C)CC)C(=O)O [SEQ ID NO: 21, H-Aib-H-G-T-F-T-S-D-L-S-K-L-K[gGlu-Stea]-E-E-Q-R-Q-K-E-F-I-E-W-L-K-A-G-G-P-P-S-Aib-K-P-P-P-K-NH2] (H-H[Aib]HGTFTSDLSKLK([γGlu-Stearoyl])EEQRQKEFIEWLKAGGPPS[Aib]KPPPK-NH2)
